The subject of this assay is HCV replication. Put plainly: Replicon Assay (Huh-lucubineo-ET cells, luciferase readout). It is filed as cell-based. To be noted: Hepatitis C virus; ET (Huh-lucubineo-ET) HCV replicon cell line; luciferase activity 48-72 hours after compound addition; 6 dilutions. The protocol:
A cell line, ET (Huh-lucubineo-ET) was used for screening of compounds of the present invention for inhibition of HCV replication. The ET cell line was stably transfected with RNA transcripts harboring a I389luc-ubi-neo/NS3-3′/ET; replicon with firefly luciferase-ubiquitin-neomycin phosphotransferase fusion protein and EMCV-IRES driven NS3-5B polyprotein containing the cell culture adaptive mutations (E1202G; T1280I; K1846T) (Krieger at al, 2001 and unpublished). The ET cells were grown in DMEM, supplemented with 10% fetal calf serum, 2 mM Glutamine, Penicillin (100 IU/mL)/Streptomycin (100 μg/mL), 1× nonessential amino acids, and 250 μg/mL G418 (“Geneticin”). They were all available through Life Technologies (Bethesda, Md.). The cells were plated at 0.5−1.0×10^4 cells/well in the 96 well plates and incubated for 24 hrs before adding the test compounds. The compounds were then added to the cells to achieve a final concentration of 5 or 50 μM. Luciferase activity was measured 48-72 hours later by adding a lysis buffer and the substrate (Catalog number Glo-lysis buffer E2661 and Bright-Glo luciferase system E2620 Promega, Madison, Wis.). Cells should not be too confluent during the assay. Percent inhibition of replication was plotted relative to no compound control. For EC50 (effective concentration at which 50% of the maximum inhibition is observed) determinations, 6 dilutions of each compound were used. Compounds were typically diluted 3 fold to span a concentration range of 250 fold. EC50 and similarly TC50 values were calculated by fitting % inhibition at each concentration to the following equation:
% inhibition=100%/[(EC50/[I])^b+1]
where b is Hill's coefficient.
Turning to `CN(C)Cc1ccc(-c2ccc(Cn3cc4nc(-c5cccc(F)c5F)nc-4cn3)nn2)cc1` [Compound 233, (4-{6-[2-(2,3-Difluoro-phenyl)-imidazo[4,5-d]pyridazin-5-ylmethyl]-pyridazin-3-yl}-benzyl)-dimethyl-amine], the EC50 is ≥ 50000 nM. In the case of `CCCOc1ccc(-c2ccc(Cn3cc4nc(-c5cccc(F)c5F)nc-4cn3)cn2)c(C)c1` [Compound 234, 2-(2,3-Difluoro-phenyl)-5-[6-(2-methyl-4-propoxy-phenyl)-pyridin-3-ylmethyl]-5H-imidazo[4,5-d]pyridazine] it was 1210 nM; in that of `COc1ccc(-c2ccc(Cn3cc4nc(-c5cccc(F)c5F)nc-4cn3)cn2)c(C(F)(F)F)c1` [Compound 235, 2-(2,3-Difluoro-phenyl)-5-[6-(4-methoxy-2-trifluoromethyl-phenyl)-pyridin-3-ylmethyl]-5H-imidazo[4,5-d]pyridazine], 10 nM; in that of `Fc1cccc(-c2nc3cnn(Cc4ccc(-c5ccc(Cl)cc5C(F)(F)F)nc4)cc-3n2)c1F` [Compound 236, 5-[6-(4-Chloro-2-trifluoromethyl-phenyl)-pyridin-3-ylmethyl]-2-(2,3-difluoro-phenyl)-5H-imidazo[4,5-d]pyridazine], 15 nM. `Fc1cccc(-c2nc3cnn(Cc4ccc(-c5ccc(C(F)(F)F)cc5Cl)nc4)cc-3n2)c1F` [Compound 237, 5-[6-(2-Chloro-4-trifluoromethyl-phenyl)-pyridin-3-ylmethyl]-2-(2,3-difluoro-phenyl)-5H-imidazo[4,5-d]pyridazine] registered an EC50 of 119 nM. Take `COc1ccc(-c2ccc(Cn3cc4nc(-c5cccc(F)c5F)nc-4cn3)nn2)c(C(F)(F)F)c1` [Compound 238, 2-(2,3-Difluoro-phenyl)-5-[6-(4-methoxy-2-trifluoromethyl-phenyl)-pyridazin-3-ylmethyl]-5H-imidazo[4,5-d]pyridazine]: the EC50 is 6 nM. The same measure for `Cc1ccc(-c2ccc(Cn3cc4nc(-c5cccc(F)c5F)nc-4cn3)nc2)c(C(F)(F)F)c1` [Compound 239, 2-(2,3-Difluoro-phenyl)-5-[5-(4-methyl-2-trifluoromethyl-phenyl)-pyridin-2-ylmethyl]-5H-imidazo[4,5-d]pyridazine]: 63 nM.

As to `Cc1ccc(-c2ccc(Cn3cc4nc(-c5cccc(F)c5F)nc-4cn3)c(N)n2)c(C(F)(F)F)c1` [Compound 240, 3-[2-(2,3-Difluoro-phenyl)-imidazo[4,5-d]pyridazin-5-ylmethyl]-6-(4-methyl-2-trifluoromethyl-phenyl)-pyridin-2-ylamine], the EC50 is 44 nM. The same measure for `COc1ccc(-c2ccc(Cn3cc4nc(-c5cccc(F)c5F)nc-4cn3)cc2)c(C(F)(F)F)c1` [Compound 241, 2-(2,3-Difluoro-phenyl)-5-(4′-methoxy-2′-trifluoromethyl-biphenyl-4-ylmethyl)-5H-imidazo[4,5-d]pyridazine]: 21 nM. Consider `COc1ccc(-c2ccc(Cn3cc4nc(-c5cccc(F)c5F)nc-4cn3)c(N)n2)c(C(F)(F)F)c1` [Compound 242, 3-[2-(2,3-Difluoro-phenyl)-imidazo[4,5-d]pyridazin-5-ylmethyl]-6-(4-methoxy-2-trifluoromethyl-phenyl)-pyridin-2-ylamine], for which the midpoint of the response, the EC50, lay at 44 nM. This EC50 is about 2.1-fold higher than that of the compound before.

`COc1ccc(-c2ccc(Cn3cc4nc(-c5cccc(F)c5F)nc-4cn3)nc2)c(C(F)(F)F)c1` [Compound 243, 2-(2,3-Difluoro-phenyl)-5-[5-(4-methoxy-2-trifluoromethyl-phenyl)-pyridin-2-ylmethyl]-5H-imidazo[4,5-d]pyridazine] came in with an EC50 of 17 nM. Compound `Fc1cccc(-c2nc3cnn(Cc4ccc(-c5ccc(C(F)(F)F)cc5C(F)(F)F)cc4)cc-3n2)c1F` [Compound 244, 5-(2′,4′-Bis-trifluoromethyl-biphenyl-4-ylmethyl)-2-(2,3-difluoro-phenyl)-5H-imidazo[4,5-d]pyridazine] showed a half-maximal effective concentration (EC50) of 9 nM. The compound `CCCOc1ccc(-c2ccc(Cn3cc4nc(-c5cccc(F)c5F)nc-4cn3)cn2)cc1` [Compound 245, 2-(2,3-Difluoro-phenyl)-5-[6-(4-propoxy-phenyl)-pyridin-3-ylmethyl]-5H-imidazo[4,5-d]pyridazine] came in with a half-maximal effective concentration (EC50) of 8350 nM. Compared with the last compound, the EC50 is about 930-fold higher. In the case of `Fc1cccc(-c2nc3cnn(Cc4ccc(-c5ccc(C(F)(F)F)cc5)cn4)cc-3n2)c1F` [Compound 246, 2-(2,3-Difluoro-phenyl)-5-[5-(4-trifluoromethyl-phenyl)-pyridin-2-ylmethyl]-5H-imidazo[4,5-d]pyridazine] it was ≥ 50000 nM. In turn, `CCCOc1ccc(-c2ccc(Cn3cc4nc(-c5cccc(F)c5F)nc-4cn3)nc2)cc1` [Compound 247, 2-(2,3-Difluoro-phenyl)-5-[5-(4-propoxy-phenyl)-pyridin-2-ylmethyl]-5H-imidazo[4,5-d]pyridazine] returned a 50% effective concentration (EC50) of 5080 nM.

Regarding `Fc1cccc(-c2nc3cnn(Cc4ccc(-c5ccc(OC(F)(F)F)cc5)nc4)cc-3n2)c1F` [Compound 249, 2-(2,3-Difluoro-phenyl)-5-[6-(4-trifluoromethoxy-phenyl)-pyridin-3-ylmethyl]-5H-imidazo[4,5-d]pyridazine], the 50% effective concentration (EC50) is ≥ 50000 nM. Regarding `Fc1cccc(-c2nc3cnn(Cc4ccc(-c5ccccc5C(F)(F)F)nc4)cc-3n2)c1F` [Compound 250, 2-(2,3-Difluoro-phenyl)-5-[6-(2-trifluoromethyl-phenyl)-pyridin-3-ylmethyl]-5H-imidazo[4,5-d]pyridazine], the 50% effective concentration (EC50) was ≥ 50000 nM. On to `Fc1cc(C(F)(F)F)ccc1-c1ccc(Cn2cc3nc(-c4cccc(F)c4F)nc-3cn2)cn1` [Compound 251, 2-(2,3-Difluoro-phenyl)-5-[6-(2-fluoro-4-trifluoromethyl-phenyl)-pyridin-3-ylmethyl]-5H-imidazo[4,5-d]pyridazine], for which the half-maximal effective concentration (EC50) is ≥ 50000 nM. The same measure for `COc1ccc(-c2ccc(Cn3cc4nc(-c5cccc(F)c5F)nc-4cn3)c(-c3ccc(OC)cc3C(F)(F)F)n2)c(C(F)(F)F)c1` [Compound 252, 5-[2,6-Bis-(4-methoxy-2-trifluoromethyl-phenyl)-pyridin-3-ylmethyl]-2-(2,3-difluoro-phenyl)-5H-imidazo[4,5-d]pyridazine]: 2640 nM. The same measure for `Fc1cccc(-c2nc3cnn(Cc4ccc(-c5ccc(C(F)(F)F)cc5)nc4)cc-3n2)c1F` [Compound 253, 2-(2,3-Difluoro-phenyl)-5-[6-(4-trifluoromethyl-phenyl)-pyridin-3-ylmethyl]-5H-imidazo[4,5-d]pyridazine]: ≥ 50000 nM. In the case of `Fc1cc(C(F)(F)F)ccc1-c1ccc(Cn2cc3nc(-c4cccc(F)c4F)nc-3cn2)nc1` [Compound 254, 2-(2,3-Difluoro-phenyl)-5-[5-(2-fluoro-4-trifluoromethyl-phenyl)-pyridin-2-ylmethyl]-5H-imidazo[4,5-d]pyridazine] it was ≥ 50000 nM; in that of `COc1ccc(-c2ccc(Cn3cc4nc(-c5cccc(F)c5F)nc-4cn3)c(Cl)n2)c(C(F)(F)F)c1` [Compound 255, 5-[2-Chloro-6-(4-methoxy-2-trifluoromethyl-phenyl)-pyridin-3-ylmethyl]-2-(2,3-difluoro-phenyl)-5H-imidazo[4,5-d]pyridazine], 69 nM. Regarding `Fc1cccc(-c2nc3cnn(Cc4cccc(-c5ccc(C(F)(F)F)cc5C(F)(F)F)c4)cc-3n2)c1F` [Compound 256, 5-(2′,4′-Bis-trifluoromethyl-biphenyl-3-ylmethyl)-2-(2,3-difluoro-phenyl)-5H-imidazo[4,5-d]pyridazine], the 50% effective concentration (EC50) is 9790 nM. The same measure for `Fc1cc(-c2ccc(C(F)(F)F)cc2C(F)(F)F)ccc1Cn1cc2nc(-c3cccc(F)c3F)nc-2cn1` [Compound 257, 2-(2,3-Difluoro-phenyl)-5-(3-fluoro-2′,4′-bis-trifluoromethyl-biphenyl-4-ylmethyl)-5H-imidazo[4,5-d]pyridazine]: 45 nM. With `COc1ccc(-c2ccc(Cn3cc4nc(-c5cccc(F)c5F)nc-4cn3)cc2[N+](=O)[O-])c(C(F)(F)F)c1` [Compound 258, 2-(2,3-Difluoro-phenyl)-5-(4′-methoxy-2-nitro-2′-trifluoromethyl-biphenyl-4-ylmethyl)-5H-imidazo[4,5-d]pyridazine], a half-maximal effect (EC50) was put at 228 nM. Compared with the last compound, the EC50 is about 5.1-fold higher. `COc1ccc(-c2ccc(Cn3cc4nc(-c5cccc(F)c5F)nc-4cn3)c(F)c2)c(C(F)(F)F)c1` [Compound 259, 2-(2,3-Difluoro-phenyl)-5-(3-fluoro-4′-methoxy-2′-trifluoromethyl-biphenyl-4-ylmethyl)-5H-imidazo[4,5-d]pyridazine] gave an EC50 of 20 nM. The compound `CCCOc1ccc(-c2ccc(Cn3cc4nc(-c5cccc(F)c5F)nc-4cn3)cc2[N+](=O)[O-])cc1` [Compound 260, 2-(2,3-Difluoro-phenyl)-5-(2-nitro-4′-propoxy-biphenyl-4-ylmethyl)-5H-imidazo[4,5-d]pyridazine] showed an EC50 of 146 nM. Regarding `COc1ccc(-c2ccc(Cn3cc4nc(-c5cccc(F)c5F)nc-4cn3)cc2F)c(C(F)(F)F)c1` [Compound 261, 2-(2,3-Difluoro-phenyl)-5-(2-fluoro-4′-methoxy-2′-trifluoromethyl-biphenyl-4-ylmethyl)-5H-imidazo[4,5-d]pyridazine], the EC50 was found to be 50 nM.

Values taken from patent US20090226398A1, “ANTI-VIRAL COMPOUNDS, COMPOSITIONS, AND METHODS OF USE” (Genelabs Technologies, Inc., priority 2008, published 2009).
